We go through 13 compounds from patent US12247028B2, “Azabicyclo and diazepine derivatives” (Alcon Inc., priority 2017, dated 2025).

Like-named read-outs stand apart in the source and are kept apart here.

Experiment [1] concerns the target T1, Human muscarinic receptor M2 (Homo sapiens, UniProt P08172).
T1 construct: host or cells: cell membrane homogenates
T1 sequence (P08172 1-466): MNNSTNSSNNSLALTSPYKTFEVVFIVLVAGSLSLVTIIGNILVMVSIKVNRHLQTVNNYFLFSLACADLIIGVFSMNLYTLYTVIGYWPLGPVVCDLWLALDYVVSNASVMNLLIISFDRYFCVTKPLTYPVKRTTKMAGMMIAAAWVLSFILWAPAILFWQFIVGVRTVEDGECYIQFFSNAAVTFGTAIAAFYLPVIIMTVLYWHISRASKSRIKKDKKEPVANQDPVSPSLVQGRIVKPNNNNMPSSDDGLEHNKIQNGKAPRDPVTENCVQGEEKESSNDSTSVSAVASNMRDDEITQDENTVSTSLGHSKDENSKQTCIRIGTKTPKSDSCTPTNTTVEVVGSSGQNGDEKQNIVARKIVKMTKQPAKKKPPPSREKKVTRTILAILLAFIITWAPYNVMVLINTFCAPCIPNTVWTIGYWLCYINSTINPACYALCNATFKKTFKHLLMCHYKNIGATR
Description: Human muscarinic receptor assay M2, [3H]AF-DX 384 binding. The conditions noted are these: for inhibition at 1 µM: read-out: percent inhibition of the control radioligand specific binding, M2. The protocol:
(§1) Human Muscarinic Receptor Assay
Cell membrane homogenates (60 μg protein) are incubated for 60 min at 22° C. with 2 nM [3H]AF-DX 384 in the absence or presence of the test compound in a buffer containing 50 mM Tris-HCl (pH 7.4), 120 mM NaCl, 5 mM KCl, 5 mM MgCl2 and 1 mM EDTA. Nonspecific binding is determined in the presence of 1 μM atropine. Following incubation, the samples are filtered rapidly under vacuum through glass fiber filters (GF/B, Packard) presoaked with 0.3% PEI and rinsed several times with ice-cold 50 mM Tris-HCl using a 96-sample cell harvester (Unifilter, Packard). The filters are dried then counted for radioactivity in a scintillation counter (Topcount, Packard) using a scintillation cocktail (Microscint 0, Packard). The results are expressed as a percent inhibition of the control radioligand specific binding. The standard reference compound is methoctramine, which is tested in each experiment at several concentrations to obtain a competition curve from which its Ki and IC50 are calculated.

Experiment [2] deals with T2, Human muscarinic receptor M5 (Homo sapiens, UniProt P08912).
T2 construct: host or cells: cell membrane homogenates
T2 sequence (P08912 1-532): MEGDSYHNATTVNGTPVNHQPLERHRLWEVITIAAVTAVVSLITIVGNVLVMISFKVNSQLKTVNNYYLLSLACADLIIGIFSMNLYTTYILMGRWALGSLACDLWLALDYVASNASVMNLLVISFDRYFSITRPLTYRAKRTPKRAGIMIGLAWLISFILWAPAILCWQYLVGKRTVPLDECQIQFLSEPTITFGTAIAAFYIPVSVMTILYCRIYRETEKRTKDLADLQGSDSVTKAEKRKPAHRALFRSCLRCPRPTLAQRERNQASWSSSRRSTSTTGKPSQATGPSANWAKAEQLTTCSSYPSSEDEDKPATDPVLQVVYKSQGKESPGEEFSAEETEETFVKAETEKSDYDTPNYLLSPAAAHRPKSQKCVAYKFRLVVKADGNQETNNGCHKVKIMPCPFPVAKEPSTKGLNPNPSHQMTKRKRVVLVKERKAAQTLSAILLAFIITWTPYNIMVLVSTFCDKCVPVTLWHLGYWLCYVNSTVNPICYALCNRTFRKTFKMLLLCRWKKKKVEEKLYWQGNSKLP
The experiment in a line: Human muscarinic receptor assay M5, [3H]4-DAMP binding. The protocol:
as §1
Cell membrane homogenates (15 μg protein) are incubated for 60 min at 22° C. with 0.3 nM [3H]4-DAMP in the absence or presence of the test compound in a buffer containing 10 mM Tris-HCl (pH 7.4) and 2 mM EDTA. Nonspecific binding is determined in the presence of 1 μM atropine. Following incubation, the samples are filtered rapidly under vacuum through glass fiber filters (GF/B, Packard) presoaked with 0.3% PEI and rinsed several times with ice-cold 50 mM Tris-HCl using a 96-sample cell harvester (Unifilter, Packard). The filters are dried then counted for radioactivity in a scintillation counter (Topcount, Packard) using a scintillation cocktail (Microscint 0, Packard). The results are expressed as a percent inhibition of the control radioligand specific binding. The standard reference compound is 4-DAMP, which is tested in each experiment at several concentrations to obtain a competition curve from which its Ki and IC50 are calculated.

Setting [3] is: 0.3 nM [3H]4-DAMP, cell membrane homogenates, read-out: Ki M5.

On to `CN1C2CCC1CC(OC(=O)C(CO)(Cc1ccc(F)cc1)c1ccccc1)C2` (centres unmarked), for which the inhibition (commonly the percentage by which the read-out fell short of the control) at 1 µM in experiment [1] is under 50%. Further, in experiment [2], the Ki (usually a measure of affinity in units of concentration, obtained from inhibition or displacement) amounted to 160 nM.

As to `CN1C2CCC1CC(OC(=O)C(C)(CO)c1ccccc1)C2` (centres unmarked), the inhibitory constant (Ki) in experiment [1] turned out to be 11 nM; in experiment [2] it was 0.68 nM.

For the compound `CCC(CO)(C(=O)OC1CC2CCC(C1)N2C)c1ccccc1` (centres unmarked), the results for the Ki in experiment [1] and in experiment [2] were 35 nM and 1.1 nM, respectively.

Turning to `CN1C2CCC1CC(OC(=O)C(C)(CF)c1ccccc1)C2` (centres unmarked), the Ki in experiment [1] is 110 nM; in experiment [2] it was 7.2 nM.

With `COc1ccc(CC(CO)(C(=O)OC2CC3CCC(C2)N3C)c2ccccc2)cc1` (centres unmarked), the inhibition at 1 µM in experiment [1] is under 50%. In addition, the Ki in experiment [2] (setting [3]) was 320 nM.

Turning to `CN1C2CCC1CC(OC(=O)C(CO)(CC(F)(F)F)c1ccccc1)C2` (centres unmarked), the Ki in experiment [1] (2 nM [3H]AF-DX 384, cell membrane homogenates, read-out: Ki M2) is 240 nM; in experiment [2] it was 1.9 nM.

Regarding `CN1C2CCC1CC(OC(=O)C(CO)(Cc1ccccc1)c1ccccc1)C2` (centres unmarked), in experiment [1], the inhibition at 1 µM is under 50%. Further, the Ki in experiment [2] (setting [3]) is 280 nM.

As for `CN1C2CCC1CC(OC(=O)C(CO)(CC1CC1)c1ccccc1)C2` (centres unmarked), the Ki was 39 nM in experiment [1] and 0.99 nM in experiment [2].

As for `CN1C2CCC1CC(OC(=O)C(C)(CO)c1cccs1)C2` (centres unmarked), the Ki in experiment [1] came out at 7.9 nM; in experiment [2], 0.71 nM.

In the case of `COCC(C)(C(=O)OC1CC2CCC(C1)N2C)c1ccccc1` (centres unmarked), the Ki in experiment [1] was 72 nM; in experiment [2], 8.5 nM.

On to `CN1C2CCC1CC(OC(=O)C(CO)(CO)c1ccccc1)C2` (centres unmarked), for which the inhibition constant Ki in experiment [1] was 54 nM; in experiment [2] it was 4.5 nM.

On to `CN1C2CCC1CC(OC(=O)C(F)(CO)c1ccccc1)C2` (centres unmarked), for which the Ki in experiment [1] was found to be 15 nM; in experiment [2] it was 0.71 nM.

On to `CN1C2CCC1CC(NC(=O)C(C)(CO)c1ccccc1)C2` (centres unmarked), for which the inhibition at 1 µM in experiment [1] was under 50%. The compound also came in with a Ki in experiment [2] of 52 nM.
